Patent US4160016A, “Receptor fluorescent immunoassay” (Syva Company, priority 1977, dated 1979)
Where “and” joins values, the source holds several entries; their conditions need not be identical. Equal values may be shown once.

Legend:
Type in all cases: biochemical
Anti-Morphine [1] = experiment: Fluorescence assay for codeine with morphine-fluorescein conjugate (Ex. V) and antimorphine (Table 2)
From the text: The following tables indicate the results.

[2] = tested on: Anti-Fluorescein and Anti-Morphine; experiment: Table I fluorescence readings: fluorescein-morphine with antifluorescein and/or anti-morphine, with and without codeine
Method: In order to establish the utility of the subject compounds, the following assays were carried out. […] The fluorometer employed was a Perkin-Elmer MPF-2a. Antibodies to the fluorescers had been prepared according to normal procedures. The bovine serum albumin conjugates were injected into sheep, and after appropriate periods of time, the antibodies harvested according to conventional techniques. For typical methods of obtaining antibodies, see Microbiology, Hober Medical Division, Harper and Rowe, 1969; Landsteiner, Specificity of Seriological Reactions, Dover Publications, New York, 1962; Kabat, et al, supra; and Williams, et al, Methods in Immunology and Immunochemistry, Vol. 1, Academic Press, New York, 1967.
(§1) The reagents which were employed were as follows: FLUMO (fluorescein-morphine conjugate, Example V) was 3× 10^-6 M in water; antifluorescein was 5.6× 10^-6 M in binding sites, in water, 0.05M phosphate, pH 8.0; anti-morphine was 2× 10^-4 M in binding sites, 0.05M tris-HCl, pH 8.0, in saline solution; buffer was Tris/saline 0.05M/l, pH 8,0. Opiate solutions had 1,000 μg/ml of codeine. The solution was then diluted to a final volume of 4 ml with buffer.
(§2) All of the determinations were made at a sensitivity setting on the instrument of 4. Excitation light was 460 nm and the emitted light read at 516 nm, with a band width of 10 nm.
(§3) Where a reading is given but the absence of any material is indicated, only buffer was present in the cell. The reading times indicate the interval of time from the time of the first reading to the reading for the result which is reported, the first reading being made within as short an interval as possible of the mixing.

Anti-Morphine [3] = experiment: Fluorescence quenching of fluorescein-morphine by anti-morphine alone (Table I, cell No. 3); conditions: for Signal Intensity: fluorescein-morphine 5 μl + anti-morphine 5 μl
Method: as §1, §2, §3

COc1ccc2c3c1O[C@H]1[C@@H](O)C=C[C@H]4[C@@H](C2)N(C)CC[C@@]341 [Codeine, codeine, reference compound]
fluorescence quenched by the anti-morphine that is recovered with the addition of codeine (Anti-Morphine [1]): about 30% | Fluorescence Signal (Anti-Morphine [1]; Ex. V + anti-morphine + codeine 1.9 × 10^-7 M): 62.5 arbitrary units | Fluorescence Signal (Anti-Morphine [1]; Ex. V + anti-morphine + codeine 6.7 × 10^-7 M): 64.5 arbitrary units | Fluorescence Signal (Anti-Morphine [1]; Ex. V + anti-morphine + codeine 9.5 × 10^-8 M): 61 arbitrary units | concentration of codeine detectible (Anti-Morphine [1]; with the particular materials employed): about 10^-7 | change in signal intensity ([2]; cell No. 1, codeine added to mixture of the two antibodies, over 90 minutes): 0.5 units | change in signal intensity ([2]; cell No. 3, both antibodies with codeine and fluorescein-morphine, over 90 minutes): 6.5 units | Signal Intensity ([2]; codeine 5 μl + anti-fluorescein + anti-morphine, no fluorescein-morphine, 90 min, cell No. 1): 6 | Signal Intensity ([2]; codeine 5 μl + anti-fluorescein + anti-morphine, no fluorescein-morphine, first reading, cell No. 1): 5.5 | Signal Intensity ([2]; codeine 5 μl added to fluorescein-morphine + anti-fluorescein + anti-morphine, 90 min, cell No. 3): 16 | Signal Intensity ([2]; codeine 5 μl added to fluorescein-morphine + anti-fluorescein + anti-morphine, first reading, cell No. 3): 20 | change in fluorescence ([2]; codeine introduced into mixture of fluorescein-morphine and antibodies to fluorescein and morphine): a detectable change in fluorescence is obtained

CN1CC[C@]23c4c5ccc(OCC(=O)Nc6ccc7c(c6)C6(OC7=O)c7ccc(O)cc7Oc7cc(O)ccc76)c4O[C@H]2[C@@H](O)C=C[C@H]3[C@H]1C5 [Ex. V]
Fluorescence Signal (Anti-Morphine [1]; Ex. V 1.9 × 10^-8 M alone): 79 arbitrary units | change in signal intensity ([2]; cell No. 2, no codeine, in the first 5 minutes): 1.5 units | change in signal intensity ([2]; cell No. 2, no codeine, over 90 minutes): 2.5 units | Signal Intensity ([2]; fluorescein-morphine 5 μl + anti-fluorescein 5 μl + anti-morphine 5 μl, first reading, cells No. 2 and 3): 25 and 23 | Signal Intensity ([2]; fluorescein-morphine 5 μl + anti-fluorescein 5 μl, cell No. 2): 21 | Signal Intensity ([2]; fluorescein-morphine 5 μl alone, buffer pH 8.0, ex 460 nm, em 516 nm, cells No. 2 and 3): 62 and 46 | Signal Intensity ([2]; fluorescein-morphine + anti-fluorescein + anti-morphine (5 μl each), 5 min, cells No. 2 and 3): 26.5 and 22.5 | Signal Intensity ([2]; fluorescein-morphine + anti-fluorescein + anti-morphine (5 μl each), 90 min, cell No. 2): 27.5 | Signal Intensity (Anti-Morphine [3]; 5 min): 35 | Signal Intensity (Anti-Morphine [3]; first reading): 35.5 | reduction in signal intensity (Anti-Morphine [3]; fluorescein-morphine combined with antimorphine): approximately 25%
